Assay results as given in patent US9222118B2 (priority 2008, dated 2015).
Read-outs that look alike come from different tables or passages of the source.

Experiments:
EbolaΔVP30-GFP virus = test: microbe, parasite or virus in culture; type: cell-based, Zaire ebolavirus; details: for inhibition at 5 µM: Zaire ebolavirus, read-out: % GFP inhibition; for % GFP inhibition: 5 µM; for IC50: read-out: IC50
VSVΔG*-Ebolavirus GP = type: cell-based
EbolaΔVP30-GFP = type: cell-based, Zaire ebolavirus
Ebolavirus minigenome = type: cell-based

Row | Compound | % GFP inhibition (EbolaΔVP30-GFP virus) [%] | % cell viability (VeroVP30 cells) [%] | other results
1 | CC1(C)C(=O)C=C[C@]2(C)[C@H]3CC[C@@]4(C)[C@H](c5ccoc5)OC(=O)[C@H]5O[C@]54[C@]3(C)[C@H](O)C[C@@H]12 [Deacetylgedunin] | – | – | anti-Ebolavirus activity (EbolaΔVP30-GFP virus): did not show any anti-Ebolavirus activity; inhibition at 5 µM (EbolaΔVP30-GFP virus): 45%; % cell viability (VeroVP30 cells; green monkey): 86%
2 | NS(=O)(=O)c1nn2cc(-c3ccccc3)nc2s1 [AEG 3482, 6-Phenylimidazo[2,1-b]-1,3,4-thiadiazole-2-sulfonamide] | – | – | Infectivities of VSVΔG*-Ebolavirus GP standardized by the infectivities of VSVΔG*-VSV G (VSVΔG*-Ebolavirus GP; 10 μM): 135%; reduction of EbolaΔVP30 virus growth (EbolaΔVP30-GFP): 5%; % luc activity from the Ebolavirus minigenome (Ebolavirus minigenome): 34.0%±8.0%
3 | CC(=O)O[C@@H]1CC(=O)[C@@]2(C)C(CC(=O)[C@]3(C)C2CC[C@@]2(C)[C@H](c4ccoc4)OC(=O)C4OC423)C1(C)C (stereo partly shown) [1,7-Dideacetoxy-1,7-dioxokhivorin] | 39 | 88 | –
4 | CC1(C)C2CC(=O)[C@]3(C)C(CC[C@@]4(C)[C@H](c5ccoc5)OC(=O)[C@H]5O[C@]543)[C@@]2(C)C(=O)C[C@H]1O (stereo partly shown) [1,7-Dideacetoxy-1,7-dioxo-3-deacetylkhivorin] | 14 | 87 | –
5 | CC(=O)O[C@@H]1C[C@H]2C(C)(C)[C@H](O)C[C@H](O)[C@]2(C)[C@H]2CC[C@@]3(C)[C@H](c4ccoc4)OC(=O)[C@H]4O[C@]43[C@@]21C [1,3-Dideacetylkhivorin] | 82 | 78 | –
6 | CC(=O)O[C@@H]1CC2C(C)(C)C(=O)C3OC3[C@]2(C)C2CC[C@@]3(C)[C@H](c4ccoc4)OC(=O)C4OC43[C@@]21C (stereo partly shown) [Epoxygedunin] | 103 | 71 | IC50 (EbolaΔVP30-GFP virus): < 0.15 µM; inhibition of EbolaΔVP30-GFP growth (EbolaΔVP30-GFP): completely inhibited; % luc activity from the Ebolavirus minigenome (Ebolavirus minigenome): 1.0%±0.1%; effect on protein expression from the Ebolavirus minigenome (Ebolavirus minigenome): inhibit protein expression from the Ebolavirus minigenome; CC50 (VeroVP30 cells): > 10 µM
7 | CC1(C)C=CC(=O)[C@@]2(C)C1CC(=O)[C@]1(C)C2CC[C@@]2(C)[C@H](c3ccoc3)OC(=O)C3OC321 (stereo partly shown) [Deacetoxy-7-oxisogedunin] | 41 | 84 | –
8 | CC(=O)OC1CC2C(C)(C)[C@@H](O)CC[C@]2(C)C2CC[C@]3(C)[C@H](c4ccoc4)OC(=O)[C@H]4O[C@]43[C@]12C (stereo partly drawn) [3beta-Hydroxydeoxodihydrogedunin] | 75 | 79 | –
9 | CC(=O)O[C@@H]1CC2C(C)(C)C=CC(=O)[C@]2(C)C2CC[C@@]3(C)[C@H](c4ccoc4)OC(=O)C4OC43[C@@]21C (stereo partly shown) [Isogedunin] | 35 | 86 | –
10 | CCc1cc(-c2n[nH]c(C)c2-c2ccc3c(c2)OCCO3)c(O)cc1O [CCT 018159, 4-[4-(2,3-Dihydro-1,4-benzodioxin-6-yl)-5-methyl-1H-pyrazol-3-yl]-6-ethyl-1,3-benzenediol] | – | – | effect on VSVΔG*-Ebolavirus GP infectivity (VSVΔG*-Ebolavirus GP): slightly reduced; Infectivities of VSVΔG*-Ebolavirus GP standardized by the infectivities of VSVΔG*-VSV G (VSVΔG*-Ebolavirus GP; 10 μM): 71%; reduction in Ebolavirus GP-dependent virus infection (VSVΔG*-Ebolavirus GP; 10 μM): ~30%; reduction of EbolaΔVP30 virus growth (EbolaΔVP30-GFP): 97%; % luc activity from the Ebolavirus minigenome (Ebolavirus minigenome): 8.8%±2.6%
11 | 1,2alpha-Epoxy-7-Deacetoxy-7-Oxo-Deoxyhydrogedunin | 75 | – | % infectivity of VSVΔG*-Ebolavirus GP (VSVΔG*-Ebolavirus GP): 6.5±1.6%; IC50 (EbolaΔVP30-GFP virus): 7.12 µM; CC50 (VeroVP30 cells): > 10 µM
12 | C=C1[C@@H]2CC[C@@]3(C)[C@H](c4ccoc4)OC(=O)C[C@]13O[C@H]1CC(=O)C(C)(C)[C@H](CC(=O)OC)[C@]12C [Angolensic acid, methyl ester] | 4 | 85 | –
13 | CC1(C)C2CC(=O)[C@]3(C)C(CC[C@@]4(C)[C@H](c5ccoc5)OC(=O)C5OC543)[C@@]2(C)[C@@H](O)C[C@H]1O (stereo partly shown) [1,3-Dideacetyl-7-deacetoxy-7-oxokhivorin] | 100 | 78 | IC50 (EbolaΔVP30-GFP virus): < 0.15 µM; CC50 (VeroVP30 cells): > 10 µM
14 | CC1(C)C(=O)C=C[C@]2(C)[C@H]3CC[C@@]4(C)[C@H](c5ccoc5)OC(=O)[C@H]5O[C@]54[C@]3(C)C=C[C@@H]12 [7-Desacetoxy-6,7-dehydrogedunin] | 2 | 70 | –
15 | C=C1C2CC[C@@]3(C)[C@H](c4ccoc4)OC(=O)C[C@]13O[C@H]1CC(=O)C(C)(C)[C@H](C(OC(C)=O)C(=O)OC)[C@@]21C (stereo partly shown) [6-Acetoxyangolensic acid methyl ester] | 32 | 88 | –
16 | 3beta-Hydroxydeoxydesacetoxy-7-oxogedunin | 75 | 81 | –
17 | 6-Hydroxyangolensic acid methyl ester | 15 | 94 | –
18 | CC(=O)O[C@H]1C[C@@H](OC(C)=O)C(C)(C)C2C[C@@H](O)[C@]3(C)C(CC[C@@]4(C)[C@H](c5ccoc5)OC(=O)[C@H]5O[C@]543)[C@]21C (stereo partly shown) [7-Deacetylkhivorin] | 13 | 91 | –
19 | CC(=O)O[C@@H]1CC2C(C)(C)[C@H](O)CC[C@]2(C)C2CC[C@@]3(C)[C@H](c4ccoc4)OC(=O)C4OC43[C@@]21C (stereo partly drawn) [3alpha-Hydroxydeoxodihydrogedunin] | 85 | 94 | –
20 | CC(=O)O[C@@H]1C[C@H]2C(C)(C)C(=O)CC[C@]2(C)[C@H]2CC[C@@]3(C)[C@H](c4ccoc4)OC(=O)[C@H]4O[C@]43[C@@]21C [Dihydrogedunin] | – | – | inhibition at 5 µM (EbolaΔVP30-GFP virus): 96%; % cell viability (VeroVP30 cells; green monkey): 79%

Row | Compound | % GFP inhibition (EbolaΔVP30-GFP virus) [%] | % cell viability (VeroVP30 cells) [%] | other results
21 | 11alpha-Acetoxykhivorin | −47 | 93 | –
22 | C=C1[C@@H]([C@@]2(C)[C@@H](OC(C)=O)CC(=O)O[C@](C)(COC(C)=O)[C@@H]2C(=O)OC)[C@@H](OC=O)[C@H](OC(=O)[C@H](O)[C@H](C)CC)[C@@]2(C)[C@H](c3ccoc3)CC(=O)[C@]12O [Prieurianin] | – | – | inhibition at 5 µM (EbolaΔVP30-GFP virus): -17%; % cell viability (VeroVP30 cells; green monkey): 89%
23 | 7-Deacetoxy-3-deacetyl-7-oxokhivorin | 92 | 80 | IC50 (EbolaΔVP30-GFP virus): 0.56 µM; CC50 (VeroVP30 cells): > 10 µM
24 | 1-Deacetoxy-1-oxo-3,7-dideacetylkhivorin | 19 | 94 | –
25 | CCC(C)C(=O)O[C@@H]1C[C@@]2(C)[C@H](c3ccoc3)OC(=O)CC23OC2(C)O[C@]14[C@]1(C)[C@@H](CC(=O)OC)C5(C)CC1(O)[C@](O)(C5OC(=O)C1(C)OC1C)[C@@H](OC(C)=O)[C@]34O2 (stereo partly shown) [Utilin] | – | – | inhibition at 5 µM (EbolaΔVP30-GFP virus): 4%; % cell viability (VeroVP30 cells; green monkey): 75%
26 | CCC(C)C(OC(C)=O)C(=O)O[C@H]1[C@H](O)[C@@H]2[C@@]3(C)C=CC(=O)C(C)(C)[C@@H]3C[C@@H](OC(=O)C(O)C(C)C)[C@@]2(C)[C@@]23O[C@@H]2C[C@@H](c2ccoc2)[C@]13C (stereo partly shown) [Heudelottin C] | 104 | 5 | –
27 | CC(=O)O[C@@H]1C[C@H]2C(C)(C)CCC(=O)[C@]2(C)[C@H]2CC[C@@]3(C)[C@H](c4ccoc4)OC(=O)[C@H]4O[C@]43[C@@]21C [2,3-Dihydroisogedunin] | −17 | 91 | –
28 | CC1(C)C(=O)[C@@H]2O[C@@H]2[C@@]2(C)C1C[C@@H](O)[C@]1(C)C2CC[C@@]2(C)[C@H](c3ccoc3)OC(=O)C3OC321 (stereo partly drawn) [1,2alpha-Epoxydeacetoxydihydrogedunin] | 75 | 77 | –
29 | CC(=O)O[C@@H]1CC2C(C)(C)[C@H](O)C=C[C@]2(C)C2CC[C@@]3(C)[C@H](c4ccoc4)OC(=O)C4OC43[C@@]21C (stereo partly shown) [Gedunol] | 79 | 82 | –
30 | Heudelottin E | −49 | 93 | –
31 | CC(=O)O[C@H]1C[C@@H](OC(C)=O)C(C)(C)C2CC(=O)[C@]3(C)C(CC[C@@]4(C)[C@H](c5ccoc5)OC(=O)[C@H]5O[C@]543)[C@]21C (stereo partly shown) [7-Deacetoxy-7-oxokhivorin] | 26 | 90 | –
32 | CC(=O)OC1CC(OC(C)=O)C2(C)C(CC(OC(C)=O)C3(C)C2CCC2(C)C(c4ccoc4)OC(=O)C4OC423)C1(C)C (stereo not shown) [7-Epikhivorin] | 4 | 79 | –
33 | C=C1[C@@H]([C@@]2(C)C=CC(=O)C(C)(C)[C@@H]2CC(=O)OC)CC[C@@]2(C)[C@H](c3ccoc3)OC(=O)[C@H]3O[C@]132 [Andirobin] | – | – | inhibition at 5 µM (EbolaΔVP30-GFP virus): -12%; % cell viability (VeroVP30 cells; green monkey): 91%
34 | CC(=O)O[C@H]1CC[C@]2(C)[C@H]3CC[C@@]4(C)[C@H](c5ccoc5)OC(=O)[C@H]5O[C@]54[C@]3(C)[C@H](OC(C)=O)C[C@H]2C1(C)C [3beta-Acetoxydeoxodihydrogedunin] | 90 | 80 | –
35 | CC(=O)O[C@H]1C[C@@H](OC(C)=O)C(C)(C)[C@@H]2C[C@@H](OC(C)=O)[C@]3(C)[C@H](CC[C@@]4(C)[C@H](c5ccoc5)OC(=O)[C@H]5O[C@@]534)[C@@]12C [Khivorin] | – | – | inhibition at 5 µM (EbolaΔVP30-GFP virus): 0%; % cell viability (VeroVP30 cells; green monkey): 82%
36 | CC1(C)C(=O)C=C[C@]2(C)[C@H]3CC[C@@]4(C)[C@H](c5ccoc5)OC(=O)[C@H]5O[C@]54[C@]3(C)C(=O)C[C@@H]12 [Deacetoxy-7-oxogedunin] | 80 | 79 | –
37 | 7-Deacetyldihydrogedunin | −30 | 85 | –
38 | CC(=O)O[C@H]1C[C@@H](O)C(C)(C)[C@@H]2C[C@@H](OC(C)=O)[C@]3(C)[C@H](CC[C@@]4(C)[C@@H](c5ccoc5)OC(=O)[C@H]5O[C@@]534)[C@@]12C [3-Deacetylkhivorin] | 6 | 102 | –
39 | CCC(C)C(=O)O[C@@H]1C[C@@]2(C)[C@H](c3ccoc3)OC(=O)CC23OC2(C)OC34[C@H](OC(=O)C(C)C)[C@@]3(O)[C@@H](OC(=O)C5(C)OC5C)[C@@]5(C)C[C@]3(O)[C@@](C)([C@H]5CC(=O)OC)C14O2 (stereo partly shown) [Entandrophragmin] | −12 | 83 | –
